# Source: patent publication US5571804A, “Cephalosporin antibiotics” (priority 1993, dated 1996)
# Key:
# Assay in all cases: MIC, two-fold agar dilution
# Assay type in all cases: cell-based
# Conditions in all cases: Muller-Hinton agar, 37° C., 20 hours
# [1] = tested on: Staphylococcus aureus 6538P
# [2] = tested on: Staphylococcus aureus giorgio
# Staphylococcus aureus 77 = tested on: Staphylococcus aureus 77
# [3] = tested on: Staphylococcus aureus 241
# [4] = tested on: Streptococcus laecalis 29212A
# E. coli 10536 = tested on: E. coli 10536
# E. coli 3190Y = tested on: E. coli 3190Y
# E. coli 851E = tested on: E. coli 851E
# E. coli TEM1 1193E = tested on: E. coli TEM1 1193E
# E. coli TEM3 3455E = tested on: E. coli TEM3 3455E
# E. coli TEM5 3739E = tested on: E. coli TEM5 3739E
# E. coli TEM7 3457E = tested on: E. coli TEM7 3457E
# E. coli TEM9 2639E = tested on: E. coli TEM9 2639E
# [5] = tested on: Pseudomonas aeruginosa 10145
# [6] = tested on: Pseudomonas aeruginosa 6065
# [7] = tested on: Acinetobacter calcoaceticus 15473A
# [8] = tested on: Citrobacter diversus 2046E
# [9] = tested on: Enterobacter cloacae IND + VE 1194E
# Enterobacter cloacae P99 = tested on: Enterobacter cloacae P99
# [10] = tested on: Klebsiella aerogenes SHV-1 1976E
# [11] = tested on: Klebsiella aerogenes K1 + 1082E
# Proteus vularis 6059A = tested on: Proteus vularis 6059A
# [12] = tested on: Serratia marcescens 1826E
# [13] = tested on: Salmonella typhimurium 14028A
# [14] = tested on: Pseudomonas aeruginosa 1912E
# [15] = tested on: Staphylococcus epidermidis 887E
SMILES,minimal inhibitory concentration (MIC) [1],minimal inhibitory concentration (MIC) [2],minimal inhibitory concentration (MIC) (Staphylococcus aureus 77),minimal inhibitory concentration (MIC) [3],minimal inhibitory concentration (MIC) [4],minimal inhibitory concentration (MIC) (E. coli 10536),minimal inhibitory concentration (MIC) (E. coli 3190Y),minimal inhibitory concentration (MIC) (E. coli 851E),minimal inhibitory concentration (MIC) (E. coli TEM1 1193E),minimal inhibitory concentration (MIC) (E. coli TEM3 3455E),minimal inhibitory concentration (MIC) (E. coli TEM5 3739E),minimal inhibitory concentration (MIC) (E. coli TEM7 3457E),minimal inhibitory concentration (MIC) (E. coli TEM9 2639E),minimal inhibitory concentration (MIC) [5],minimal inhibitory concentration (MIC) [6],minimal inhibitory concentration (MIC) [7],minimal inhibitory concentration (MIC) [8],minimal inhibitory concentration (MIC) [9],minimal inhibitory concentration (MIC) (Enterobacter cloacae P99),minimal inhibitory concentration (MIC) [10],further results
"Cc1c(N)nc(SCC2=C(C(=O)O)N3C(=O)[C@@H](NC(=O)/C(=N\O[C@@H](C(=O)O)c4ccc(O)c(O)c4)c4csc(N)n4)[C@H]3SC2)nc1N [Compound I-2R, 7-[(Z)-2-(aminothiazol-4-yl)-2-(α-carboxyl-3,4-dihydroxybenzyloxyimino)acetamido]-3-(4,6-diamino-5-methylpyrimidine-2-yl)thiomethyl-3-cephem-4-carboxylate]",2,1,32,128,32,0.063,0.13,0.13,0.5,0.25,0.25,0.016,0.5,2,8,1,2,32,32,0.5,minimal inhibitory concentration (MIC) [11]: 1; minimal inhibitory concentration (MIC) (Proteus vularis 6059A): 0.5; minimal inhibitory concentration (MIC) [12]: 2; minimal inhibitory concentration (MIC) [13]: 0.25
"Nc1ccnc(SCC2=C(C(=O)O)N3C(=O)[C@@H](NC(=O)/C(=N\O[C@@H](C(=O)O)c4ccc(O)c(O)c4)c4csc(N)n4)[C@H]3SC2)n1 [Compound I-3R, 7-[(Z)-2-(aminothiazol-4-yl)-2-(α-carboxyl-3,4-dihydroxybenzyloxyimino)acetamido]-3-(4-amino-pyrimidine-2-yl) thiomethyl-3-cephem-4-carboxylate]",2,2,16,128,32,0.031,0.13,0.13,0.5,0.25,0.25,0.016,0.5,2,8,1,2,32,16,1,minimal inhibitory concentration (MIC) [14]: 1; minimal inhibitory concentration (MIC) [11]: 0.5; minimal inhibitory concentration (MIC) (Proteus vularis 6059A): 0.5; minimal inhibitory concentration (MIC) [12]: 2
"Nc1cc(N)nc(SCC2=C(C(=O)O)N3C(=O)[C@@H](NC(=O)/C(=N\O[C@@H](C(=O)O)c4ccc(O)c(O)c4)c4csc(N)n4)[C@H]3SC2)n1 [Compound I-1R, 7-[(Z)-2-(aminothiazol-4-yl)-2-(α-carboxy-3,4-dihydroxybenzyloxyimino)acetamido]-3-(4,6-diamino-pyrimidine-2-yl) thiomethyl-3-cephem-4-carboxylate]",2,1,32,128,16,0.063,0.13,0.13,0.25,0.25,0.25,0.063,0.5,2,8,1,1,32,32,0.5,minimal inhibitory concentration (MIC) [14]: 1; minimal inhibitory concentration (MIC) [11]: 0.5; minimal inhibitory concentration (MIC) (Proteus vularis 6059A): 0.5; minimal inhibitory concentration (MIC) [12]: 2; minimal inhibitory concentration (MIC) [13]: 0.13
"Nc1nc(/C(=N/O[C@@H](C(=O)O)c2ccc(O)c(O)c2)C(=O)N[C@@H]2C(=O)N3C(C(=O)O)=C(CSc4nc(N)c(N)c(N)n4)CS[C@H]23)cs1 [Compound I-5R, 7-[(Z)-2-(aminothiazol-4-yl)-2-(α-carboxy-3,4-dihydroxybenzyloxyimino)acetamido]-3-(4,5,6-triaminopyrimidine-2-yl)thiomethyl-3-cephem-4-carboxylate]",2,1,32,128,16,0.063,0.063,0.13,0.25,0.25,0.25,0.063,0.5,2,8,1,1,32,32,0.25,minimal inhibitory concentration (MIC) [14]: 1; minimal inhibitory concentration (MIC) [11]: 0.5; minimal inhibitory concentration (MIC) (Proteus vularis 6059A): 0.5; minimal inhibitory concentration (MIC) [12]: 2; minimal inhibitory concentration (MIC) [13]: 0.13
"Nc1nc(/C(=N/O[C@@H](C(=O)O)c2ccc(O)c(O)c2)C(=O)N[C@@H]2C(=O)N3C(C(=O)O)=C(CSc4nc(N)c5c(n4)CCC5)CS[C@H]23)cs1 [Compound I-4R, 7-[(Z)-2-(aminothiazol-4-yl)-2-(α-carboxyl-3,4-dihydroxybenzyioxyimino)acetamido]-3-(4-amino-5,6-cyclopentapyrimidine-2-yl)thiomethyl-3-cephem-4-carboxylate]",2,2,32,128,16,0.063,0.25,0.13,0.5,0.25,0.25,0.063,0.5,2,8,1,2,32,32,0.5,minimal inhibitory concentration (MIC) [15]: 32; minimal inhibitory concentration (MIC) [11]: 1; minimal inhibitory concentration (MIC) (Proteus vularis 6059A): 0.5; minimal inhibitory concentration (MIC) [12]: 2; minimal inhibitory concentration (MIC) [13]: 0.13
